Publication PMC11288027, “Exploring novel microbial metabolites and drugs for inhibiting Clostridioides difficile” (mSphere, 2024)
Like-named read-outs stand apart in the source and are kept apart here.

Columns and labels:
[1] = system: C. difficile clinical isolates; test: MIC against a panel of 20 C. difficile clinical isolates (broth microdilution); type: cell-based, Clostridioides difficile; conditions: Clostridioides difficile; for MIC50: concentration that inhibited 50% of the 20 C. difficile clinical isolates
B. fragilis = test: MIC against human gut microbiota; type: cell-based, Bacteroides fragilis; conditions: Bacteroides fragilis, anaerobic, read-out: minimum inhibitory concentration (MIC)
B. dorei = test: MIC against human gut microbiota; type: cell-based, Bacteroides dorei; conditions: Phocaeicola dorei; B. dorei HM- 719, BHIS broth, anaerobic; read-out: minimum inhibitory concentration (MIC)
Bif. breve = test: MIC against human gut microbiota; type: cell-based, Bifidobacterium breve; conditions: Bifidobacterium breve, ATCC15700; Bif. breve ATCC 15700, BHIS broth, anaerobic; read-out: minimum inhibitory concentration (MIC)
Bif. angulatum = test: MIC against human gut microbiota; type: cell-based, Bifidobacterium angulatum; conditions: Bifidobacterium angulatum; Bif. angulatum HM- 1189, BHIS broth, anaerobic; read-out: minimum inhibitory concentration (MIC)
Bif. adolescentis = test: MIC against human gut microbiota; type: cell-based, Bifidobacterium adolescentis; conditions: Bifidobacterium adolescentis; Bif. adolescentis HM- 633, BHIS broth, anaerobic; read-out: minimum inhibitory concentration (MIC)
Bif. longum = test: MIC against human gut microbiota; type: cell-based, Bifidobacterium longum; conditions: Bifidobacterium longum, anaerobic, read-out: minimum inhibitory concentration (MIC)
E. faecium = test: MIC against human gut microbiota; type: cell-based, Enterococcus faecium; conditions: Enterococcus faecium; E. faecium HM-202, TSB, aerobic; read-out: minimum inhibitory concentration (MIC)
E. fecalis = test: MIC against human gut microbiota; type: cell-based, Enterococcus faecalis; conditions: Enterococcus faecalis; E. fecalis HM-970, TSB, aerobic; read-out: minimum inhibitory concentration (MIC)
L. casei = test: MIC against human gut microbiota; type: cell-based; conditions: Lacticaseibacillus casei, ATCC334; L. casei ATCC 334, MRS broth, 5% CO2; read-out: minimum inhibitory concentration (MIC)
L. brevis = test: MIC against human gut microbiota; type: cell-based, Lactobacillus brevis; conditions: Levilactobacillus brevis, ATCC14864; L. brevis ATCC-14864, MRS broth, 5% CO2; read-out: minimum inhibitory concentration (MIC)
L. rhamanosus = test: MIC against human gut microbiota; type: cell-based, Lactobacillus rhamnoosus; conditions: Lactobacillus, ATCC53103; L. rhamanosus ATCC-53103, MRS broth, 5% CO2; read-out: minimum inhibitory concentration (MIC)
enterococcal species = test: MIC against human gut microbiota, summary in text; type: cell-based; conditions: summary over the Enterococcus strains of Table 4
Bacillus subtilis = system: Bacillus subtilis; design: method as in earlier work; conditions: cited from earlier work
[2] = system: methicillin-resistant S. aureus (MRSA); design: method as in earlier work; conditions: cited from earlier work
Escherichia coli = system: Escherichia coli; design: method as in earlier work; conditions: cited from earlier work
[3] = system: Mycobacterium tuberculosis; design: method as in earlier work; conditions: read-out: half-maximal inhibitory concentration [IC50]; cited from earlier work
in vitro = conditions: monkey
[4] = system: C. difficile ATCC BAA-1870; test: Time-kill assay at 5 × MIC; conditions: C. difficile ATCC BAA-1870, ~10^6 CFU/mL, up to 24 h
[5] = system: C. difficile ATCC BAA-1870; test: MIC of active hits by broth microdilution; conditions: C. difficile ATCC BAA-1870, 48 h anaerobic; for MIC: Clostridioides difficile, ATCCBAA1870, 48 h
[6] = system: monkey kidney epithelial (Vero) cells; test: Cytotoxicity assessment against Vero cells (MTS); conditions: Vero IC50 relative to MIC90 of C. difficile panel
[7] = Cytotoxicity assessment against Vero cells (MTS); conditions: monkey, Vero cells (monkey kidney epithelial cells)
[8] = B. fragilis HM- 709, BHIS broth
[9] = B. fragilis HM- 718, BHIS broth
[10] = Bif. longum HM- 845, BHIS broth
[11] = Bif. longum HM- 846, BHIS broth
[12] = Bif. longum HM- 847, BHIS broth
[13] = Bif. longum HM- 848, BHIS broth

COc1cc2c(cc1O)CCN[C@]21CS[C@@H]2c3c(OC(C)=O)c(C)c4c(c3[C@H](COC1=O)N1[C@@H]2[C@H]2c3c(cc(C)c(OC)c3O)C[C@@H]([C@@H]1C#N)N2C)OCO4 [ET-770, ecteinascidin 770]
130 nM: IC50 [3]
1.01 µM: MIC (Bacillus subtilis)
6 h: time to eliminate / clear C. difficile [4]
≤ 2 µg/mL: MIC (B. fragilis; [8]) | MIC (B. fragilis; [9]) | MIC (B. dorei) | MIC (Bif. breve) | MIC (Bif. angulatum) | MIC (Bif. adolescentis) | MIC (Bif. longum; [10]) | MIC (Bif. longum; [11]) | MIC (Bif. longum; [12]) | MIC (Bif. longum; [13]) | MIC (E. faecium) | MIC (E. fecalis) | MIC (L. casei) | MIC (L. brevis) | MIC (L. rhamanosus) | MIC (enterococcal species)
≤ 0.19 µg/mL: MIC [5]
0.125 µg/mL: MIC90 [1] | MIC ([1]; ATCCBAA1870, read-out: minimum inhibitory concentration (MIC), C. difficile ATCC BAA-1870 (Ribotype-027), purchased compounds, panel test) | MIC ([1]; read-out: minimum inhibitory concentration (MIC), C. difficile CD-1 (Ribotype-027)) | MIC ([1]; read-out: minimum inhibitory concentration (MIC), C. difficile CD-6 (Ribotype-027)) | MIC ([1]; read-out: minimum inhibitory concentration (MIC), C. difficile CD-10(Ribotype-027)) | MIC ([1]; read-out: minimum inhibitory concentration (MIC), C. difficile CD-12) | MIC ([1]; read-out: minimum inhibitory concentration (MIC), C. difficile CD-22) | MIC ([1]; read-out: minimum inhibitory concentration (MIC), C. difficile CD-24) | MIC ([1]; read-out: minimum inhibitory concentration (MIC), C. difficile CD-26 (Ribotype-027)) | MIC ([1]; read-out: minimum inhibitory concentration (MIC), C. difficile CD-30) | MIC ([1]; read-out: minimum inhibitory concentration (MIC), C. difficile NR-49308)
≤ 0.06 µg/mL: MIC50 ([1]; 48 h)
2.02 µM: MIC [2]
> 128 µg/mL: IC50 at 24 h (in vitro)
more than 1024 times: safety index: Vero IC50 as times the MIC90 against strains of C. difficile [6]
0.03 µg/mL: MIC ([1]; ATCC630, read-out: minimum inhibitory concentration (MIC), C. difficile ATCC 630) | MIC ([1]; read-out: minimum inhibitory concentration (MIC), C. difficile CD-28)
32.43 µM: MIC (Escherichia coli)
0.06 µg/mL: MIC ([1]; ATCC43255, read-out: minimum inhibitory concentration (MIC), C. difficile ATCC 43255) | MIC ([1]; read-out: minimum inhibitory concentration (MIC), C. difficile CD-13) | MIC ([1]; read-out: minimum inhibitory concentration (MIC), C. difficile CD-15) | MIC ([1]; read-out: minimum inhibitory concentration (MIC), C. difficile CD-23) | MIC ([1]; read-out: minimum inhibitory concentration (MIC), C. difficile CD-29 (Ribotype-027)) | MIC ([1]; read-out: minimum inhibitory concentration (MIC), C. difficile NR-49302) | MIC ([1]; read-out: minimum inhibitory concentration (MIC), C. difficile NR-49304) | MIC ([1]; read-out: minimum inhibitory concentration (MIC), C. difficile NR-49319) | MIC50 [1]

COC(=O)N/N=C/c1c[n+]([O-])c2ccccc2[n+]1[O-] [Carbadox]
16 µg/mL: MIC (Bif. breve) | MIC (Bif. longum; [12])
8 µg/mL: MIC (Bif. longum; [11])
128 µg/mL: MIC (E. faecium) | MIC (E. fecalis) | MIC (L. casei)
0.5 µg/mL: MIC ([1]; C. difficile CD-6 (Ribotype-027), read-out: minimum inhibitory concentration (MIC)) | MIC ([1]; C. difficile CD-29 (Ribotype-027), read-out: minimum inhibitory concentration (MIC)) | MIC ([1]; C. difficile NR-49319, read-out: minimum inhibitory concentration (MIC))
1 µg/mL: MIC50 ([1]; 48 h, read-out: MIC50) | MIC ([1]; ATCC630, C. difficile ATCC 630, read-out: minimum inhibitory concentration (MIC)) | MIC ([1]; ATCC43255, C. difficile ATCC 43255, read-out: minimum inhibitory concentration (MIC)) | MIC ([1]; C. difficile CD-13, read-out: minimum inhibitory concentration (MIC)) | MIC ([1]; C. difficile CD-15, read-out: minimum inhibitory concentration (MIC)) | MIC ([1]; C. difficile CD-24, read-out: minimum inhibitory concentration (MIC)) | MIC ([1]; C. difficile NR-49304, read-out: minimum inhibitory concentration (MIC)) | MIC ([1]; C. difficile NR-49308, read-out: minimum inhibitory concentration (MIC)) | MIC50 ([1]; read-out: MIC50)
4 µg/mL: MIC (Bif. angulatum) | MIC (Bif. adolescentis) | MIC (Bif. longum; [10]) | MIC (Bif. longum; [13])
> 256 µg/mL: MIC (L. rhamanosus)
32 µg/mL: MIC (L. brevis)
> 128 µg/mL: IC50 at 24 h [7]
2 µg/mL: MIC ([1]; ATCCBAA1870, C. difficile ATCC BAA-1870 (Ribotype-027), purchased compounds, panel test, read-out: minimum inhibitory concentration (MIC)) | MIC ([1]; C. difficile CD-1 (Ribotype-027), read-out: minimum inhibitory concentration (MIC)) | MIC ([1]; C. difficile CD-10(Ribotype-027), read-out: minimum inhibitory concentration (MIC)) | MIC ([1]; C. difficile CD-12, read-out: minimum inhibitory concentration (MIC)) | MIC ([1]; C. difficile CD-22, read-out: minimum inhibitory concentration (MIC)) | MIC ([1]; C. difficile CD-23, read-out: minimum inhibitory concentration (MIC)) | MIC ([1]; C. difficile CD-26 (Ribotype-027), read-out: minimum inhibitory concentration (MIC)) | MIC ([1]; C. difficile CD-28, read-out: minimum inhibitory concentration (MIC)) | MIC ([1]; C. difficile CD-30, read-out: minimum inhibitory concentration (MIC)) | MIC ([1]; C. difficile NR-49302, read-out: minimum inhibitory concentration (MIC)) | MIC90 ([1]; concentration that inhibited 90% of the 20 C. difficile clinical isolates, read-out: MIC90) | MIC (B. fragilis; [8]) | MIC (B. fragilis; [9]) | MIC (B. dorei)
4 µM: MIC (μM) [5]
> 64 times: safety index: Vero IC50 as times the MIC90 against strains of C. difficile [6]
1.05 µg/mL: MIC [5]
